Experimental findings from the SangsterLogP compilation are described below.

`O=C(NCCN1CCc2ccccc2C1)C1CCCCC1` registered a logP of 3.14.

Compound `O=C(NCCCN1CCc2ccccc2C1)C1CCCCC1` registered a log partition coefficient (logP) of 3.44.

`O=C(NCCN1CCc2ccccc2C1)C1CCCC1`: the lipophilicity (logP) is 3.52. The logP values of the last two compounds are within 0.2 log units of each other.

`O=C(NCCCN1CCc2ccccc2C1)C1CCCC1` gave a logP of 3.45.

For the compound `CC(C)(C)C(=O)NCCCN1CCc2ccccc2C1`, the lipophilicity (logP) was found to be 3.46.

On to `CC(C)(C)C(=O)NCCN1CCc2ccccc2C1`, for which the log partition coefficient (logP) was found to be 3.13.

As for `O=C(NCCCCN1CCc2ccccc2C1)C1CC1`, the lipophilicity (logP) came out at 3.02.

`O=C(NCCN1CCc2ccccc2C1)C12CC3CC(CC(C3)C1)C2` returned a logP of 4.61.

`O=C(NCCCCN1CCc2ccccc2C1)C1CCC1` came in with a logP of 3.3.

The compound `CC(=O)NCCN1CCc2ccccc2C1` showed a logP of 1.83.

`CC(=O)NCCCN1CCc2ccccc2C1`: the logP came out at 2.66.

Regarding `CC(C)C(=O)NCCCCN1CCc2ccccc2C1`, the logP worked out at 2.93.

`O=C(NCCCCN1CCc2ccccc2C1)C12CC3CC(CC(C3)C1)C2` returned a logP of 4.82.

`O=C(NCCCN1CCc2ccccc2C1)C1CC1` gave a logP of 2.75.

Regarding `O=C(NCCCCN1CCc2ccccc2C1)C1CCC2CCCC21` (configuration not stated), the logP came to 4.46.

`O=C(CC1CC2CCC1C2)NCCCCN1CCc2ccccc2C1` (configuration not stated) showed a lipophilicity (logP) of 4.58. This logP and that of the compound before are within 0.2 log units of each other.

`O=C(NCCCN1CCc2ccccc2C1)C1CCC2CCCC21` (configuration not stated) showed a logP of 4.5. This logP and that of the compound before are within 0.2 log units of each other.

The compound `O=C(NCCN1CCc2ccccc2C1)C1CCC1` displayed a logP of 2.9.

`CC(C)C(=O)NCCCN1CCc2ccccc2C1` returned a logP of 2.56.

In turn, `O=C(NCCN1CCc2ccccc2C1)C1CCC2CCCC21` (configuration not stated) returned a lipophilicity (logP) of 4.37.

As to `CC(=O)NCCCCN1CCc2ccccc2C1`, the logP came to 2.3.

For the compound `O=C(NCCN1CCc2ccccc2C1)C1CC1`, the logP came to 2.76.

For the compound `CC(C)C(=O)NCCN1CCc2ccccc2C1`, the logP came to 2.87. This logP and that of the compound before are within 0.2 log units of each other.

`O=C(CC1CC2CCC1C2)NCCN1CCc2ccccc2C1` (configuration not stated) showed a logP of 4.26.

`CC(C)(C)C(=O)NCCCCN1CCc2ccccc2C1` had a logP of 3.31.

Compound `O=C(NCCCN1CCc2ccccc2C1)C12CC3CC(CC(C3)C1)C2` had a logP of 5.14.

With `O=C(NCCCN1CCc2ccccc2C1)C1CCC1`, the log partition coefficient (logP) came out at 3.12.

The term logP denotes the decadic logarithm of the partition coefficient of the neutral form, usually between octanol and water. Lower therefore signals lower lipophilicity.
